Assay results published in patent US9902728B2, “Pyrrolo and pyrazolopyrimidines as ubiquitin-specific protease 7 inhibitors” (Forma Therapeutics, Inc., priority 2014, dated 2018).

Target: T1, USP7 (Homo sapiens, UniProt Q93009)
T1 construct: USP7, construct USP7 (208-1102) 6*His, Viva Biotech; 6xHis (C); purchased Viva Biotech
Test: USP7 Assay A (Ubitquin-Rhodamine 110 Assay)
Assay type: biochemical
Details: USP7 activity in USP7 assay A and B (table does not say which assay per compound); read-out: USP7_IC50
Method in brief: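 Ub-Rh110 cleavage in 20 mM Tris-HCl pH 8.0 with 1 mM GSH, 0.03% BGG, 0.01% Triton X-100; compound preincubated with enzyme 30 min before substrate.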

T1 sequence (Q93009 208-1102): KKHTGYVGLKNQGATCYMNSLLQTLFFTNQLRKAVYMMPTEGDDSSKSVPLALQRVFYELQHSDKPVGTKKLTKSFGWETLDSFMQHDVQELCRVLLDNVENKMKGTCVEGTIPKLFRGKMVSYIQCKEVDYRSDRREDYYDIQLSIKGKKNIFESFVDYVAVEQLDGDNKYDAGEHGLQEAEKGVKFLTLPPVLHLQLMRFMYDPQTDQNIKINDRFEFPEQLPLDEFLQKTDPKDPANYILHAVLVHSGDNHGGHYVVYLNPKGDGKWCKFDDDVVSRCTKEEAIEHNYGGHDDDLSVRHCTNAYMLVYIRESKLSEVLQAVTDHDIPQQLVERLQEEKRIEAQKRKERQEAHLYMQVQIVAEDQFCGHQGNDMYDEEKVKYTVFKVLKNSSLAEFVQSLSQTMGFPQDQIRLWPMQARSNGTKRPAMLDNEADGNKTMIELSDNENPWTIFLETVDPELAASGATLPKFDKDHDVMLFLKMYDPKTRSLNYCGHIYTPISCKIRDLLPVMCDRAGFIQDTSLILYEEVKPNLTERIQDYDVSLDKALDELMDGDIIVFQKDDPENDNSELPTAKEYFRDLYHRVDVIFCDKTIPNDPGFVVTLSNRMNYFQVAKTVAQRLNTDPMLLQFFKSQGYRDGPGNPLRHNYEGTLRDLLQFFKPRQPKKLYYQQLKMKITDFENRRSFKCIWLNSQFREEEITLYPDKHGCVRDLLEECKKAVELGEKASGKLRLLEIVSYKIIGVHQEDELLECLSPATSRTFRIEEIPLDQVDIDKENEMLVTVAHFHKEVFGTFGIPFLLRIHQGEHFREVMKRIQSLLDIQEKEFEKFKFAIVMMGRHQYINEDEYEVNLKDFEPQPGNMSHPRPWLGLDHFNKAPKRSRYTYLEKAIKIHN

Row | SMILES | IC50
1 | CC1(COc2ccc(-n3ncc4c(=O)n(CC5(O)CCN(C(=O)C6(C)CCC6)CC5)cnc43)cc2)COC1 [Compound I-1136] | < 0.2 µM
2 | O=C(c1cnc(C2CC2)o1)N1CCC(O)(Cn2cnc3c(cnn3-c3ccc(-c4cccnc4)cc3)c2=O)CC1 [Compound I-985] | 0.2 to 1 µM
3 | CN1CCN(c2ncc(C(=O)N3CCC(O)(Cn4cnc5c(cnn5-c5ccc(Cl)cc5)c4=O)CC3)o2)CC1 [Compound I-1085] | 1 to 10 µM
4 | O=C(C1CC1)N1CCC(O)(Cn2cnc3c(cnn3-c3ccc(-c4cnn5ccccc45)cc3)c2=O)CC1 [Compound I-1736] | 0.2 to 1 µM
5 | O=C(c1ccc(F)cc1)N1CCC(O)(Cn2cnc3c(cnn3-c3ccc(-c4cnn(C5COC5)c4)cc3)c2=O)CC1 [Compound I-1615] | 0.2 to 1 µM
6 | Cc1ncc(C(=O)N2CCC(O)(Cn3cnc4c(cnn4-c4ccc(-n5cc(C(F)(F)F)cn5)cc4)c3=O)CC2)o1 [Compound I-1688] | < 0.2 µM
7 | Cn1ccc(OC2CCC(C(=O)N3CCC(O)(Cn4cnc5c(cnn5-c5ccc(F)cc5)c4=O)CC3)CC2)n1 (stereo not drawn) [Compound I-753] | 0.2 to 1 µM
8 | O=C(C1CCC(Oc2cccnn2)CC1)N1CCC(O)(Cn2cnc3c(cnn3-c3ccc(F)cc3)c2=O)CC1 (stereo not drawn) [Compound I-1212] | 0.2 to 1 µM
9 | O=C(c1cn(C2CC2)cn1)N1CCC(O)(Cn2cnc3c(cnn3-c3ccc(Cl)cc3)c2=O)CC1 [Compound I-1092] | 1 to 10 µM
10 | O=C(C1CCC(Oc2cccc(F)n2)CC1)N1CCC(O)(Cn2cnc3c(cnn3-c3ccc(F)cc3)c2=O)CC1 (stereo not drawn) [Compound I-739] | < 0.2 µM
11 | O=C(C1CC1)N1CCC(O)(Cn2cnc3c(cnn3-c3ccc(N4CCCc5ncccc54)cc3)c2=O)CC1 [Compound I-1727] | 1 to 10 µM
12 | O=C(c1cnc(C2CC2)o1)N1CCC(O)(Cn2cnc3c(cnn3-c3ccc(-n4cc(CO)cn4)cc3)c2=O)CC1 [Compound I-1684] | < 0.2 µM
13 | O=C(C[C@@H](C(F)F)n1cccn1)N1CCC(O)(Cn2cnc3c(cnn3-c3ccc(Cl)cc3)c2=O)CC1 [Compound I-1132] | 0.2 to 1 µM
14 | COc1ccc(OC2CCC(C(=O)N3CCC(O)(Cn4cnc5c(cnn5-c5ccccc5)c4=O)CC3)CC2)nc1 (stereo not drawn) [Compound I-1020] | 0.2 to 1 µM
15 | CC1(C(=O)N2CCC(O)(Cn3cnc4c(cnn4-c4ccc(N5CCC6(CC5)COC6)cc4)c3=O)CC2)CC1 [Compound I-1716] | < 0.2 µM
16 | Cc1cnc(-c2ccc(-n3ncc4c(=O)n(CC5(O)CCN(C(=O)c6ccc(F)cc6)CC5)cnc43)cc2)n1C [Compound I-984] | 1 to 10 µM
17 | Cn1ncc2c(=O)n(CC3(O)CCN(C(=O)CC(C(F)F)n4ccc(F)n4)CC3)cnc21 (stereo not drawn) [Compound I-1753] | 0.2 to 1 µM
18 | Cn1cc(C(=O)N2CCC(O)(Cn3cnc4c(cnn4-c4ccc(F)cc4)c3=O)CC2)c(Cn2cccn2)n1 [Compound I-921] | 1 to 10 µM
19 | COc1ccc(OC2CCC(C(=O)N3CCC(O)(Cn4cnc5c(cnn5-c5ccc(F)cc5)c4=O)CC3)CC2)nc1 (stereo not drawn) [Compound I-1019] | 0.2 to 1 µM
20 | CN1CCC2(CC1)CCN(c1ccc(-n3ncc4c(=O)n(CC5(O)CCN(C(=O)c6ccc(F)cc6)CC5)cnc43)cc1)CC2 [Compound I-1621] | < 0.2 µM
21 | O=C(C1CCC(Oc2cccnc2)CC1)N1CCC(O)(Cn2cnc3c(cnn3-c3ccc(F)cc3)c2=O)CC1 (stereo not drawn) [Compound I-750] | 0.2 to 1 µM
22 | O=C(c1ccc(-c2cnn3c2NCCC3)cc1)N1CCC(O)(Cn2cnc3c(cnn3-c3ccc(F)cc3)c2=O)CC1 [Compound I-552] | 0.2 to 1 µM
23 | CN1Cc2cnn(-c3ccc(C(=O)N4CCC(O)(Cn5cnc6c(cnn6-c6ccc(F)cc6)c5=O)CC4)cc3)c2C1 [Compound I-1000] | 1 to 10 µM
24 | O=C(c1cnc(C2CC2)o1)N1CCC(O)(Cn2cnc3c(cnn3-c3ccc(-n4cc(C(F)(F)F)cn4)cc3)c2=O)CC1 [Compound I-1685] | < 0.2 µM
25 | O=C(c1ccc(-c2cnn(CCO)c2)cc1)N1CCC(O)(Cn2cnc3c(cnn3-c3ccc(F)cc3)c2=O)CC1 [Compound I-1006] | 1 to 10 µM
26 | O=C(C1CCC(Oc2ccc(F)cn2)CC1)N1CCC(O)(Cn2cnc3c(cnn3-c3ccc(F)cc3)c2=O)CC1 (stereo not drawn) [Compound I-737] | < 0.2 µM
27 | C[C@@]1(O)CCN(c2ccc(-n3ncc4c(=O)n(CC5(O)CCN(C(=O)C[C@@H](C(F)F)n6cccn6)CC5)cnc43)cc2)C1 [Compound I-836] | 1 to 10 µM
28 | CC(=O)N1C[C@@H]2C[C@H]1CN2c1ccc(-n2ncc3c(=O)n(CC4(O)CCN(C(=O)C5(C)CC5)CC4)cnc32)cc1 [Compound I-1747] | 0.2 to 1 µM
29 | O=C(C[C@H](C(F)F)n1cccn1)N1CCC(O)(Cn2cnc3c(cnn3-c3ccc(N4CCCCC4)cc3)c2=O)CC1 [Compound I-821] | 1 to 10 µM
30 | O=C(c1cn[nH]c1Cc1ccccc1)N1CCC(O)(Cn2cnc3c(cnn3-c3ccc(F)cc3)c2=O)CC1 [Compound I-603] | < 0.2 µM

Same assay, conditions: USP7 assay A and B (table does not say which assay per compound); Ubiquitin-Rhodamine 110 substrate; read-out: USP7_IC50

Row | SMILES | IC50
31 | CC(CC(=O)N1CCC(O)(Cn2cnc3c(cnn3C)c2=O)CC1)c1ccccc1 (stereo not drawn) [Compound I-1, 5-((4-Hydroxy-1-(3-phenylbutanoyl)piperidin-4-yl)methyl)-1-methyl-1,5-dihydro-4H-pyrazolo[3,4-d]pyrimidin-4-one] | 0.2 to 1 µM

Same assay, conditions: USP7 assay A and B (table does not say which assay per compound); read-out: USP7_IC50

Row | SMILES | IC50
32 | CN(C)CCNC(=O)c1ccc(-n2ncc3c(=O)n(CC4(O)CCN(C(=O)C5CC5)CC4)cnc32)cc1 [Compound I-1487] | 0.2 to 1 µM
33 | CN(C)C(=O)N1CCC(O)(Cn2cnc3c(cc(-c4ccccc4)n3-c3ccc(F)cc3)c2=O)CC1 [Compound I-706] | 1 to 10 µM
34 | Nc1cc(Cl)ccc1C(=O)N1CCC(O)(Cn2cnc3c(cnn3-c3ccccc3)c2=O)CC1 [Compound I-232] | 0.2 to 1 µM
35 | C[C@@H](CC(=O)N1CCC(O)(Cn2cnc3c(cnn3-c3ccc(F)cc3)c2=O)CC1)n1cc2c(n1)CCC2 (single isomer, unassigned) [Compound I-519] | > 10 µM
36 | O=C(C[C@H](C(F)F)n1cccn1)N1CCC(O)(Cn2cnc3c(cnn3-c3ccc(F)cc3)c2=O)CC1 [Compound I-517] | 1 to 10 µM
37 | Cn1ncc2c(=O)n(CC3(O)CCN(C(=O)CC(c4ccccc4)C(F)F)CC3)cnc21 (stereo not drawn) [Compound I-147] | 1 to 10 µM
38 | O=C(C1CC1)N1CCC(O)(Cn2cnc3c(cnn3-c3ccc(NS(=O)(=O)C4CC4)cc3)c2=O)CC1 [Compound I-1432] | 1 to 10 µM
39 | C[C@H](CC(=O)N1CCC(O)(Cn2cnc3c(cnn3-c3ccccn3)c2=O)CC1)c1ccccc1 [Compound I-70] | 0.2 to 1 µM
40 | Cn1ncc2c(=O)n(CC3(O)CCN(C(=O)C[C@H](c4ccccc4)C(F)(F)F)CC3)cnc21 [Compound I-143] | 1 to 10 µM
41 | COc1ccc(Cl)cc1C(=O)N1CCC(O)(Cn2cnc3c(cnn3-c3ccccc3)c2=O)CC1 [Compound I-218] | 1 to 10 µM
42 | O=C(c1ccc(F)cc1F)N1CCC(O)(Cn2cnc3c(cnn3-c3ccccc3)c2=O)CC1 [Compound I-209] | 1 to 10 µM
43 | CS(=N)(=O)c1ccc(-n2ncc3c(=O)n(CC4(O)CCN(C(=O)c5ccc(F)cc5)CC4)cnc32)cc1 (single isomer, unassigned) [Compound I-998, 5-((1-(4-fluorobenzoyl)-4-hydroxypiperidin-4-yl)methyl)-1-(4-(S-methylsulfonimidoyl)phenyl)-1,5-dihydro-4H-pyrazolo[3,4-d]pyrimidin-4-one] | 1 to 10 µM
44 | O=C(c1ccc(NC2CC2)cc1)N1CCC(O)(Cn2cnc3c(cnn3-c3ccccc3)c2=O)CC1 [Compound I-23, 5-((1-(4-(Cyclopropylamino)benzoyl)-4-hydroxypiperidin-4-yl)methyl)-1-phenyl-1,5-dihydro-4H-pyrazolo[3,4-d]pyrimidin-4-one] | 0.2 to 1 µM
45 | O=C(C1CC1)N1CCC(O)(Cn2cnc3c(cnn3-c3ccccc3)c2=O)CC1 [Compound I-158] | 1 to 10 µM
46 | C[C@@H](CC(=O)N1CCC(O)(Cn2cnc3c(cnn3-c3ccc(F)cc3)c2=O)CC1)n1ncc2c1CCC2 [Compound I-521] | > 10 µM
47 | O=C(O)c1ccc(C(=O)N2CCC(O)(Cn3cnc4c(cnn4-c4ccccc4)c3=O)CC2)cc1 [Compound I-272] | 1 to 10 µM
48 | Cc1ncc(C(=O)N2CCC(O)(Cn3cnc4c(cnn4-c4ccc(F)cc4)c3=O)CC2)o1 [Compound I-531] | 1 to 10 µM
49 | CNC1CCN(c2ccc(-c3ccc(-n4ncc5c(=O)n(CC6(O)CCN(C(=O)C7CC7)CC6)cnc54)cc3)cc2)C1 (stereo not drawn) [Compound I-688] | 0.2 to 1 µM
50 | O=C(c1ccc2c(c1)CCO2)N1CCC(O)(Cn2cnc3c(cnn3-c3ccc(Cl)cc3)c2=O)CC1 [Compound I-1521] | 1 to 10 µM
51 | O=C(c1ccccc1)N1CCC(O)(Cn2cnc3c(cnn3-c3ccccc3O)c2=O)CC1 [Compound I-18, 5-((1-Benzoyl-4-hydroxypiperidin-4-yl)methyl)-1-(2-hydroxyphenyl)-1,5-dihydro-4H-pyrazolo[3,4-d]pyrimidin-4-one] | > 10 µM
52 | Cc1ncc(C(=O)N2CCC(O)(Cn3cnc4c(cnn4-c4ccc(Cl)cc4)c3=O)CC2)o1 [Compound I-1524] | 1 to 10 µM
53 | CN1CCN(c2ccc(C(=O)N3CCC(O)(Cn4cnc5c(cnn5-c5ccc(F)cc5)c4=O)CC3)cc2)CC1 [Compound I-606] | 1 to 10 µM
54 | C=CC(=O)NC1CCC(C(=O)N2CCC(O)(Cn3cnc4c(cnn4-c4ccc(F)cc4)c3=O)CC2)CC1 (stereo not drawn) [Compound I-576] | 1 to 10 µM
55 | C[C@H](CC(=O)N1CCC(O)(Cn2cnc3c(cnn3-c3ccccc3)c2=O)CC1)n1cccn1 [Compound I-175] | < 0.2 µM
56 | CC(=O)N1CCC(O)(Cn2cnc3c(cnn3-c3ccccc3)c2=O)CC1 [Compound I-154] | 1 to 10 µM
57 | O=C(C1CC1)N1CCC(O)(Cn2cnc3c(cnn3-c3cccc(C(F)(F)F)c3)c2=O)CC1 [Compound I-34] | > 10 µM
58 | C#CC(=O)N[C@@H]1CC[C@@H]1C(=O)N1CCC(O)(Cn2cnc3c(cnn3-c3ccc(F)cc3)c2=O)CC1 [Compound I-952] | 0.2 to 1 µM
59 | O=C(c1ccc(OC(F)F)cc1)N1CCC(O)(Cn2cnc3c(cnn3-c3ccc(F)c(CO)c3)c2=O)CC1 [Compound I-641] | 1 to 10 µM
60 | Cc1ncoc1C(=O)N1CCC(O)(Cn2cnc3c(cnn3-c3ccc(F)cc3)c2=O)CC1 [Compound I-312] | 1 to 10 µM
